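96-well plates; 48 h exposure; 5 concentrations. Endpoints by linear interpolation between flanking doses. Not reached: highest tested concentration assigned. GI50: concentration for 50% inhibition of growth.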 Calls of active or inactive are those of the source. No stated cut-off is given here; in the data, active = GI50 up to about 1.1 µM and inactive = higher.
Assays:
Assay in all cases: NCI tumour cell line growth inhibition, 48 h
A498 = test system: A498
SF-268 = test system: SF-268
SN12C = test system: SN12C
K562 = test system: K562
HL-60 = test system: HL-60
HCC 2998 = test system: HCC 2998
SF-295 = test system: SF-295
LOX IMVI = test system: LOX IMVI
CCRF-CEM = test system: CCRF-CEM
EKVX = test system: EKVX
HCT-15 = test system: HCT-15
HT-29 = test system: HT-29
UACC-62 = test system: UACC-62
786-0 = test system: 786-0
NCI-H522 = test system: NCI-H522
RPMI-8226 = test system: RPMI-8226
OVCAR-3 = test system: OVCAR-3

Row | Structure (SMILES) | GI50 (A498) | GI50 (SF-268) | GI50 (SN12C) | GI50 (K562) | GI50 (HL-60) | GI50 (HCC 2998) | GI50 (SF-295) | GI50 (LOX IMVI) | GI50 (CCRF-CEM) | GI50 (EKVX) | GI50 (HCT-15) | GI50 (HT-29) | GI50 (UACC-62) | GI50 (786-0) | GI50 (NCI-H522) | GI50 (RPMI-8226) | GI50 (OVCAR-3)
1 | N#CCC(=O)N1CCCOCCC1 | > 100 µM (inactive) | > 100 µM (inactive) | > 100 µM (inactive) | > 100 µM (inactive) | 58.7 µM (inactive) | > 100 µM (inactive) | > 100 µM (inactive) | 44.8 µM (inactive) | > 100 µM (inactive) | > 100 µM (inactive) | 17.9 µM | 34.1 µM (inactive) | > 100 µM (inactive) | > 100 µM (inactive) | – | – | –
2 | CC(=O)C1(O)CC2(c3ccccc3)C(=O)C1(c1ccccc1)C(c1ccccc1)=C2c1ccccc1 (stereo unspecified) | > 100 µM (inactive) | > 100 µM (inactive) | > 100 µM (inactive) | 26.1 µM (inactive) | 29.4 µM (inactive) | – | 33.4 µM (inactive) | > 100 µM (inactive) | > 100 µM (inactive) | > 100 µM (inactive) | > 100 µM | > 100 µM (inactive) | 79.4 µM (inactive) | > 100 µM (inactive) | 66.8 µM (inactive) | 16.5 µM (inactive) | > 100 µM (inactive)
3 | COc1cc(C2C(Cl)C(=O)N2NC(=O)c2ccc(NC(C)=O)cc2)ccc1O (stereo unspecified) | > 100 µM (inactive) | > 100 µM (inactive) | > 100 µM (inactive) | > 100 µM (inactive) | > 100 µM (inactive) | – | > 100 µM (inactive) | > 100 µM (inactive) | > 100 µM (inactive) | > 100 µM (inactive) | > 100 µM | > 100 µM (inactive) | > 100 µM (inactive) | > 100 µM (inactive) | > 100 µM (inactive) | > 100 µM (inactive) | > 100 µM (inactive)
4 | CN1CCCCC(C(O)(c2ccccc2)c2ccccc2)C1=O (stereo unspecified) | > 100 µM (inactive) | > 100 µM (inactive) | > 100 µM (inactive) | > 100 µM (inactive) | – | > 100 µM (inactive) | > 100 µM (inactive) | > 100 µM (inactive) | 85.5 µM (inactive) | > 100 µM (inactive) | 16.3 µM | > 100 µM (inactive) | > 100 µM (inactive) | > 100 µM (inactive) | > 100 µM (inactive) | 24.1 µM (inactive) | > 100 µM (inactive)
5 | CC1=CC(=O)N2C(OC[C@@H]2c2ccccc2)O1 (stereo partly specified) | – | > 100 µM (inactive) | > 100 µM (inactive) | > 100 µM (inactive) | > 100 µM (inactive) | – | > 100 µM (inactive) | – | > 100 µM (inactive) | > 100 µM (inactive) | > 100 µM | > 100 µM (inactive) | > 100 µM (inactive) | > 100 µM (inactive) | > 100 µM (inactive) | > 100 µM (inactive) | > 100 µM (inactive)
6 | CC(C)N1CN(C(C(=O)N[C@@H]2C(=O)N3C2SC(C)(C)C3C(=O)O)c2ccc(O)cc2)CSC1=S (stereo partly specified) | > 100 µM (inactive) | > 100 µM (inactive) | > 100 µM (inactive) | 31.8 µM (inactive) | > 100 µM (inactive) | – | > 100 µM (inactive) | > 100 µM (inactive) | 58.7 µM (inactive) | > 100 µM (inactive) | 43 µM | > 100 µM (inactive) | > 100 µM (inactive) | > 100 µM (inactive) | 41 µM (inactive) | 94.2 µM (inactive) | 41.1 µM (inactive)
7 | CC(C)(C)C(=C[S+]([O-])/N=C/c1ccccc1)C(C)(C)C (stereo unspecified) | 36.4 µM (inactive) | 49.4 µM (inactive) | 21.1 µM (inactive) | 1.23 µM (inactive) | – | – | – | 18.8 µM (inactive) | 17.8 µM (inactive) | 52.1 µM (inactive) | 23 µM | 38.4 µM (inactive) | – | > 100 µM (inactive) | 23 µM (inactive) | 20.8 µM (inactive) | 34.1 µM (inactive)
8 | CN(C)c1ccccc1CC(c1c[nH]c2ccccc12)c1c[nH]c2ccccc12 | 17.1 µM (inactive) | 14.8 µM (inactive) | 3.1 µM (inactive) | 10.7 µM (inactive) | 7.93 µM (inactive) | 9.46 µM (inactive) | 11.9 µM (inactive) | 11.8 µM (inactive) | 9.51 µM (inactive) | 5.38 µM (inactive) | 12.2 µM | 5.38 µM (inactive) | 14.2 µM (inactive) | 12.8 µM (inactive) | 12.9 µM (inactive) | – | 12.8 µM (inactive)
9 | c1cc2ccc1C1NCCCN1CCN1CCCNC1c1ccc(cc1)C1NCCCN1CCN1CCCNC21 (stereo unspecified) | > 100 µM (inactive) | > 100 µM (inactive) | > 100 µM (inactive) | 37 µM (inactive) | 20.1 µM (inactive) | – | > 100 µM (inactive) | 92.3 µM (inactive) | 41.8 µM (inactive) | > 100 µM (inactive) | 61.8 µM | > 100 µM (inactive) | > 100 µM (inactive) | > 100 µM (inactive) | 23.1 µM (inactive) | 70.6 µM (inactive) | 50.7 µM (inactive)
10 | Cc1ccc(NC(=O)C(=O)CC(=O)c2ccccc2)cc1C | > 100 µM (inactive) | > 100 µM (inactive) | > 100 µM (inactive) | – | – | > 100 µM (inactive) | > 100 µM (inactive) | > 100 µM (inactive) | – | > 100 µM (inactive) | 37.2 µM | > 100 µM (inactive) | 70.6 µM (inactive) | > 100 µM (inactive) | 98.9 µM (inactive) | > 100 µM (inactive) | 33.6 µM (inactive)
11 | Oc1ncnc2c1CCCN2 | – | > 100 µM (inactive) | > 100 µM (inactive) | > 100 µM (inactive) | > 100 µM (inactive) | > 100 µM (inactive) | > 100 µM (inactive) | > 100 µM (inactive) | > 100 µM (inactive) | > 100 µM (inactive) | > 100 µM | > 100 µM (inactive) | > 100 µM (inactive) | > 100 µM (inactive) | > 100 µM (inactive) | > 100 µM (inactive) | > 100 µM (inactive)
12 | CCC1C(C)c2c([nH]c3ccccc23)C2C(=O)N(c3ccccc3)C(=O)C21 (stereo unspecified) | – | 20 µM (inactive) | 13.5 µM (inactive) | 12.6 µM (inactive) | 11.1 µM (inactive) | 15.5 µM (inactive) | 15.1 µM (inactive) | 15.7 µM (inactive) | 18 µM (inactive) | 14 µM (inactive) | 13.6 µM | 12.5 µM (inactive) | 9.42 µM (inactive) | 16.9 µM (inactive) | – | 11.9 µM (inactive) | 13.3 µM (inactive)
13 | CC(C)C1CC[C@@H](C)C[C@@]1(O)CC(N)=O (stereo partly specified) | – | – | > 100 µM (inactive) | > 100 µM (inactive) | – | > 100 µM (inactive) | > 100 µM (inactive) | – | – | > 100 µM (inactive) | > 100 µM | > 100 µM (inactive) | > 100 µM (inactive) | > 100 µM (inactive) | > 100 µM (inactive) | > 100 µM (inactive) | > 100 µM (inactive)
14 | COc1ccc(-c2cc(=O)c3cc(O)ccc3o2)c(OC)c1OC | – | 24.8 µM (inactive) | 32.6 µM (inactive) | 24.8 µM (inactive) | 15.7 µM (inactive) | 35.6 µM (inactive) | 24.7 µM (inactive) | 21.7 µM (inactive) | 4.73 µM (inactive) | 12.2 µM (inactive) | 31.8 µM | 44.2 µM (inactive) | 28.7 µM (inactive) | 29 µM (inactive) | 18.2 µM (inactive) | 12.9 µM (inactive) | 18.4 µM (inactive)
15 | CCOC(=O)c1c(-c2[nH]c(C(=O)OCc3ccccc3)c(C)c2C(=O)OCC)[nH]c(C(=O)OCc2ccccc2)c1C | > 100 µM (inactive) | > 100 µM (inactive) | > 100 µM (inactive) | – | – | > 100 µM (inactive) | > 100 µM (inactive) | > 100 µM (inactive) | – | > 100 µM (inactive) | > 100 µM | > 100 µM (inactive) | > 100 µM (inactive) | 92 µM (inactive) | > 100 µM (inactive) | > 100 µM (inactive) | > 100 µM (inactive)
16 | CC1=C(C(=O)Nc2ccccc2)C(c2cccc3ccccc23)C(C(=O)Nc2ccccc2)=C(C)N1 | 24.1 µM (inactive) | 21.5 µM (inactive) | 18 µM (inactive) | 30.4 µM (inactive) | 17.1 µM (inactive) | 20.4 µM (inactive) | 17.5 µM (inactive) | 16.7 µM (inactive) | 26.7 µM (inactive) | 11.8 µM (inactive) | 16.2 µM | 18.8 µM (inactive) | 13.8 µM (inactive) | 22.4 µM (inactive) | 16 µM (inactive) | – | 12.8 µM (inactive)
17 | CC1=NC2(C(=O)O)C3(C(=O)O)N=C(C)OC3(C(F)(F)F)C2(C(F)(F)F)O1 (stereo unspecified) | > 100 µM (inactive) | > 100 µM (inactive) | > 100 µM (inactive) | > 100 µM (inactive) | > 100 µM (inactive) | > 100 µM (inactive) | > 100 µM (inactive) | > 100 µM (inactive) | > 100 µM (inactive) | > 100 µM (inactive) | > 10 µM | > 100 µM (inactive) | > 100 µM (inactive) | > 100 µM (inactive) | > 100 µM (inactive) | – | > 100 µM (inactive)
18 | CC1C2C=C(O)C(=O)C(C2=O)C1c1ccccc1 (stereo unspecified) | > 100 µM (inactive) | > 100 µM (inactive) | – | > 100 µM (inactive) | – | > 100 µM (inactive) | > 100 µM (inactive) | > 100 µM (inactive) | > 100 µM (inactive) | > 100 µM (inactive) | > 100 µM | > 100 µM (inactive) | > 100 µM (inactive) | > 100 µM (inactive) | > 100 µM (inactive) | > 100 µM (inactive) | > 100 µM (inactive)

From ChEMBL document CHEMBL1201862, “PubChem BioAssay data set” (2004)
